{"source": "patent US20220265590A1", "about": "“DIBENZYLAMINES AS AMINO ACID TRANSPORT INHIBITORS” (VANDERBILT UNIVERSITY, priority 2019, published 2022)", "key": {"[1]": {"tested_on": "HEK293 cells", "assay": "Glutamine uptake inhibition assay (3H-labeled glutamine accumulation in live cells)", "format": "cell-based", "conditions": "Homo sapiens, 15 minutes incubation with 3H-GLN (500 nM), assay buffer pH 6, triplicate, read-out: ^3H Glut IC50", "method": "Twenty-four hours prior to assay, HEK293 cells were seeded at a density of 12K cells per well into a 96 well plate (coated with poly-D-Lysine). […] Accumulation of 3H-labeled glutamine (3H-GLN) in live cells was assessed by incubation for 15 minutes with vehicle or test reagent at the concentrations indicated. The final concentration of 3H-GLN was 500 nM. Each compound was evaluated in triplicate. For the assay, cells were rinsed with assay buffer (pH 6) three times (100 uL). Compounds were transferred in a single-add protocol and incubated for 15 minutes with 3H-GLN. After the uptake period, the supernatant was removed and cell monolayers were washed 3× with 100 μl assay buffer. Subsequently, cells were lysed with 50 μl 1M NaOH and 150 μl scintillation liquid was added to each well. The plate was incubated at room temperature for 20 minutes, transferred to 4° C. storage overnight, and read the next day using a top-count plate reader (Perkin Elmer)."}, "[2]": {"tested_on": "HEK293 cells", "assay": "Viability (Cell Titer, CellTiter-Glo)", "format": "cell-based", "conditions": "Homo sapiens, 48 h incubation, 96-well plate", "method": "Viability (Cell Titer) was evaluated using a commercially available chemiluminescent reagents (CellTiter-Glo, Promega Corp. G7572) in 96-well plate format according to the manufacturers protocol. Cells were exposed to either vehicle or test agent at the indicated concentrations and incubated for a period of 48 h. Subsequently, CellTiter-Glo reagent was added and the plates were read using a plate reader (BioTek Synergy 4) with standard settings."}}, "data": [{"molecule": "COc1ccc(Oc2ccccc2CN(CC[C@H](N)C(=O)O)Cc2ccccc2OCc2ccc(Cl)cc2)cc1", "note": "[compound 14, (S)-2-amino-4-((2-((4-chlorobenzyl)oxy)benzyl)(2-(4-methoxyphenoxy)benzyl)amino)butanoic acid]", "values": [{"measurement": "IC50", "setting": "[1]", "result": 164, "unit": "µM"}]}, {"molecule": "N[C@@H](CCN(Cc1ccccc1OCc1ccccc1F)Cc1ccccc1Oc1ccc(Cl)cc1)C(=O)O", "note": "[compound 10, (S)-2-amino-4-((2-(4-chlorophenoxy)benzyl)(2-((2-fluorobenzyl)oxy)benzyl)amino)butanoic acid]", "values": [{"measurement": "IC50", "setting": "[1]", "result": 43, "unit": "µM"}]}, {"molecule": "COc1ccc(Oc2ccccc2CN(CC[C@H](N)C(=O)O)Cc2ccccc2OCc2ccc(F)cc2)cc1", "note": "[compound 13, (S)-2-amino-4-((2-((4-fluorobenzyl)oxy)benzyl)(2-(4-methoxyphenoxy)benzyl)amino)butanoic acid]", "values": [{"measurement": "IC50", "setting": "[1]", "result": 29, "unit": "µM"}]}, {"molecule": "N[C@@H](CCN(Cc1ccccc1OCc1ccccc1F)Cc1ccccc1Oc1ccccc1F)C(=O)O", "note": "[compound 7, (S)-2-amino-4-((2-((2-fluorobenzyl)oxy)benzyl)(2-(2-fluorophenoxy)benzyl)amino)butanoic acid]", "values": [{"measurement": "IC50", "setting": "[2]", "result": 18.7, "unit": "µM"}, {"measurement": "IC50", "setting": "[1]", "result": 94.2, "unit": "µM"}]}, {"molecule": "N[C@@H](CCN(Cc1ccccc1OCc1ccc(F)cc1)Cc1ccccc1Oc1ccc(Cl)cc1)C(=O)O", "note": "[compound 15, (S)-2-amino-4-((2-(4-chlorophenoxy)benzyl)(2-((4-fluorobenzyl)oxy)benzyl)amino)butanoic acid]", "values": [{"measurement": "IC50", "setting": "[1]", "result": 31.4, "unit": "µM"}]}, {"molecule": "N[C@@H](CCN(Cc1ccccc1OCc1ccc(F)cc1)Cc1ccccc1Oc1ccccc1F)C(=O)O", "note": "[compound 8, (S)-2-amino-4-((2-((4-fluorobenzyl)oxy)benzyl)(2-(2-fluorophenoxy)benzyl)amino)butanoic acid]", "values": [{"measurement": "IC50", "setting": "[1]", "result": 117, "unit": "µM"}]}, {"molecule": "COc1cccc(COc2ccccc2CN(CC[C@H](N)C(=O)O)Cc2ccccc2Oc2ccc(Cl)cc2)c1", "note": "[Cpd. No. 20, (S)-2-amino-4-((2-(4-chlorophenoxy)benzyl)(2-((3-methoxybenzyl)oxy)benzyl)amino) butanoic acid]", "values": [{"measurement": "IC50", "setting": "[2]", "result": 13.9, "unit": "µM"}, {"measurement": "IC50", "setting": "[1]", "result": 3.19, "unit": "µM"}]}, {"molecule": "N[C@@H](CCN(Cc1ccccc1OCc1ccc(Cl)cc1)Cc1ccccc1Oc1ccc(Cl)cc1)C(=O)O", "note": "[Cpd. No. 11, (S)-2-amino-4-((2-((4-chlorobenzyl)oxy)benzyl)(2-(4-chlorophenoxy)benzyl)amino)butanoic acid]", "values": [{"measurement": "IC50", "setting": "[2]", "result": 12.7, "unit": "µM"}, {"measurement": "IC50", "setting": "[1]", "result": "< 100", "unit": "µM"}]}, {"molecule": "Cc1cccc(COc2ccccc2CN(CC[C@H](N)C(=O)O)Cc2ccccc2Oc2ccc(Cl)cc2)c1", "note": "[Cpd. No. 21, (S)-2-amino-4-((2-(4-chlorophenoxy)benzyl)(2-((3-methylbenzyl)oxy)benzyl)amino) butanoic acid]", "values": [{"measurement": "IC50", "setting": "[2]", "result": 28.9, "unit": "µM"}, {"measurement": "IC50", "setting": "[1]", "result": 25.1, "unit": "µM"}]}]}
